From patent publication US5804576A, “Derivatives of 5-androsten-17-ones and 5-androstan-17-ones” (Research Corporation Technologies, Inc., priority 1986, dated 1998)
Where “and” joins values, the source holds several entries; their conditions need not be identical. Equal entries are not always repeated. Entries after “also recorded” stand apart in the source; their conditions may differ.

Legend:
[1] = system: TPA stimulation of 3H-thymidine incorporation in epidermis; experiment: Inhibition of TPA stimulation of 3H-thymidine incorporation in epidermis, topical steroid; type: in vivo, mouse (A/J)
Experimental: Tumor promoters, such as TPA, stimulate hyperplasia and DNA synthesis when applied to the skin, and it is believed that this stimulation is an important step in the enhancement of tumorigenesis.
Incorporation of ^3 H-thymidine into A/J mouse epidermal DNA was determined as described in Pashko, L. L., Schwartz, A. G., Abou-Gharbia, M. and Swern, D. (1981), Inhibition of DNA synthesis in mouse epidermis and breast epithelium by dehydroepiandrosterone and related steroids, Carcinogenesis, 2, 717-721. Values are mean±SD for 3 separately treated mice in each group 20 hours after TPA application. DHEA or testosterone was added topically in 0.2 ml acetone one hour before TPA addition.

[2] = system: (3H) DMBA binding to skin DNA; experiment: [3H]DMBA binding to mouse skin DNA, topical steroid; type: in vivo, mouse (A/J)
Description: Skin tumors can be induced in the mouse either by weekly application of a carcinogen such as […] (DMBA), or alternatively,by a single sub-threshold dose of the carcinogen followed by twice weekly applications of the tumor promoter tetradecanoylphorbol-13-acetate (TPA). In order to exert its carcinogenic effect, DMBA must be metabolized by an NADPH-dependent mixed-function oxidase to chemically reactive intermediates which bind covalently to DNA and produce mutations leading to malignant transformation. […] This effect of DHEA very probably is a result of the inhibition of G6PDH and lowering of the intracellular pool of NADPH, which is a co-factor for the mixed-function oxidase activation of DMBA.
Binding of [^3 H]DMBA to mouse skin DNA was determined as described in Pashko, L. L., and Schwartz, A. G. (1983), Effect of food restriction, dehydroepiandrosterone, or obesity on the binding of ^3 H-7,12-dimethylbenz(a)-anthracene to mouse skin DNA, J. Gerontol., 38, 8-12. Values are mean±SD for 3 individual determinations, with pooled tissue from 2 mice used for each determination. DHEA or testosterone (400 ug in 0.2 ml acetone) was applied to the skin one hour before [^3 H]DMBA. The mean weight of the food restricted mice was 18.5±1.0 gm, n=6, of the ad libitum fed, 27.4±1.0 gm, n=6, of the ad libitum fed treated with DHEA, 28.2±0.9 gm, n=6, and of the ad libitum fed treated with testosterone, 28.3±0.9 gm, n=6, following two weeks of feeding. The average food consumed was, in gm/mouse/day, 2.2, 3.8, 3.8 and 4.0 for the food restricted, ad libitum fed, ad libitum fed plus DHEA, and ad libitum fed plus testosterone groups, respectively.

[3] = system: [3H]DMBA binding to skin DNA; experiment: [3H]DMBA binding to skin DNA, oral steroid; type: in vivo, mouse (male A/J)
Experimental: (§1) Male A/J mice were orally intubated with steroid suspended in sesame oil (0.5 ml/mouse) at the indicated dose. Mice not receiving steroid were given sesame oil alone. Food restricted mice received approximately 60% of food of Ad libitum fed for two weeks. One hour after oral intubation, topical [^3 H]DMBA was applied to the skin, and the amount bound to DNA was determined 12 hours later as described in Table 4.
as §1, with “alone.” for “alone. Food restricted mice received approximately 60% of food of Ad libitum fed for two weeks.”

[4] = system: [3H]DMBA binding to skin DNA; experiment: [3H]DMBA binding to skin DNA, oral steroid; type: in vivo, mouse (male A/J); settings: four weeks treatment with 400 mg/kg
[5] = system: seminal vesicles plus prostate glands; experiment: Androgenic and anti-androgenic activity (seminal vesicle plus prostate weight); type: in vivo, mouse (male A/J); settings: con't. experiment; five weeks; DHEA 0.54%; n = 5
[6] = system: mammalian glucose-6-phosphate dehydrogenase (G6PDH); settings: cited from earlier work
[7] = system: many different cell lines in culture; settings: 10^-5 M to 10^-4 M; cited from earlier work
[8] = system: HeLa cell strain, TCRC-2; settings: HeLa TCRC-2; cited from earlier work
[9] = system: VY-A^vy /a mice; settings: long-term administration; cited from earlier work
[10] = system: spontaneous breast cancer in C3H mice; settings: long-term treatment; cited from earlier work
[11] = system: 3H-thymidine incorporation in mouse epidermis; settings: in vivo; cited from earlier work
[12] = system: cholesterol; settings: mouse, in vivo; cited from earlier work
[13] = system: Epstein-Barr virus-induced transformation of human lymphocytes; settings: cited from earlier work
[14] = system: New Zealand Black (NZB) mice; settings: long-term treatment; cited from earlier work
[15] = system: rat uterus; settings: 60 mg/kg s.c. for 3 days, sexually immature rats; cited from earlier work
[16] = system: rat uterus; mouse seminal vesicle plus prostate; settings: prolonged administration; cited from earlier work

C[C@]12CC[C@H](O)CC1=CC[C@@H]1[C@@H]2CC[C@]2(C)C(=O)CC[C@@H]12 [DHEA, 3β-Hydroxy-5-androst-en-17-one, reference compound]
TPA stimulation of epidermal DNA synthesis (in words) [1]: abolishes this stimulation
SPECIFIC ACTIVITY ([3H]DMBA bound to skin DNA) ([2]; 400 ug topical one hour before DMBA, ad libitum fed, Table 4): 66 ± 13 cpm/ug DNA
rate of binding of topically applied 3H-DMBA to skin DNA (in words) ([2]; topical, A/J mouse): inhibits the rate of binding of topically applied ^3 H-DMBA to A/J mouse skin DNA
SPECIFIC ACTIVITY ([3H]DMBA bound to skin DNA) ([3]; 400 mg/kg p.o., 12 hours): 73.1 ± 16.5 cpm/ug DNA and 92 ± 17.6 cpm/ug DNA
3H-DMBA binding to skin DNA (in words) ([3]; oral, single administration): does not inhibit ^3 H-DMBA binding to skin DNA; also recorded: inactive
3H-DMBA binding to skin DNA (in words) [4]: does inhibit ^3 H-DMBA binding to skin DNA
Mean Seminal Vesicle plus Prostate Weight ± S.D. [5]: 5.02 ± 0.41 mg/100 gm body weight
inhibition of mammalian G6PDH (in words) [6]: potent non-competitive inhibitor of mammalian glucose-6-phosphate dehydrogenase
growth of cell lines in culture (in words) [7]: slows the growth of many different cell lines in culture
sensitivity to growth inhibition (in words) [8]: particularly sensitive to DHEA-induced growth inhibition
development of obesity (in words) [9]: prevented the development of obesity without suppressing appetite
spontaneous breast cancer development (in words) [10]: markedly inhibits spontaneous breast cancer development
weight gain (in words) [10]: reducing weight gain without suppressing appetite
3H-thymidine incorporation in mouse epidermis (in words) [11]: antagonizes the capacity of the tumor promoter
anti-hypercholesterolemic effect (in words) [12]: anti-hypercholesterolemic effect
inhibition of Epstein-Barr virus-induced transformation (in words) [13]: inhibitors of Epstein-Barr virus-induced transformation of human lymphocytes
rate of development of the autoimmune anemia (in words) [14]: significantly inhibits the rate of development of the autoimmune anemia
uterine enlargement (in words) [15]: produces uterine enlargement
estrogenic effect (in words) [16]: evidence of an estrogenic effect after prolonged administration
